Experimental data: patent US7785567B2, “Growth hormone-releasing peptides in the treatment or prevention of atherosclerosis and hypercholesterolemia” (Valorisation-Recherche, Société en Commandite, priority 2002, dated 2010)
Where a SMILES comes first, the peptide text is derived from it. Primed or numbered codes have the meaning given here. Where no end group is shown, it is not given here. [ ]: non-standard residue; d: D form. dTrp(2-Me) = Cc1[nH]c2ccccc2c1C[C@@H](N)C(=O)O; Haic′ = not defined here

Tests used:
[1] = test system: human monocytic THP-1 cells; test: Lipid accumulation in PMA-differentiated THP-1 macrophages (Oil Red O extraction, 510 nm); assay type: cell-based; conditions: 10 μM for 24 hrs
Description: A: GHRPs reduce lipid accumulation in differentiated human macrophages. To induce lipid accumulation, human monocytic THP-1 cells were differentiated to macrophages with 5 ng/mL PMA for 48 hrs and then treated as indicated for 24 hrs with 10 μM HEX or EP80317 in the presence of phorbol myristate acetate (PMA). Non-differentiated cells (no PMA) were also analysed. Lipid accumulation was quantified by photometry at 510 nm following extraction of Oil Red O from stained cells. Lipid staining was reduced by 35% and 28% in macrophages treated with HEX and EP80317, respectively, compared to untreated cells.

[2] = test system: ApoE-null mice; test: Fatty streak lesion area in aortas, en face oil red-O staining, 12 weeks treatment (Example 1); assay type: in vivo, mouse; conditions: HFHC diet, HEX 100 μg/kg per day or EP80317 300 μg/kg per day s.c. for 12 weeks from 6 weeks old, vs 0.9% NaCl
Description: GHRPs prevent fatty streak formation in ApoE deficient mice fed a HFHC diet for 12 weeks (from 6 weeks old). Effects of HEX (100 μg/kg per day) and of EP80317 (300 μg/kg per day), administered subcutaneously for 12 weeks (from 6 weeks old).
To determine whether GHRPs reduce atherosclerosis development, we have used the ApoE deficient mice strain and their C57BL/6 control littermates to assess the effects of prolonged (12 weeks) GHRPs treatment on fatty streak formation in mice fed a an enriched lipid diet. The surface area of oil red-O staining aortas of mice has been used as an index of plaque development and changes in the plasma levels of lipids as an index of hypolipemic effect. […]
(§1) The animals were housed in cages (less than 5 per cage) and fed a normal chow diet and water ad libitum. […] Four days before sacrifice, 6 mice from Groups 1 to 3 were injected i.p. with oxLDL (minimally oxidized, 3-6 mmol/mg protein, as determined by Thiobarbituric Acid Reactive Substances (TBARS) assay). […] The entire aorta from the heart, extending 5-10 mm after bifurcation of the iliac arteries and including the subclavian right and left common carotid arteries, was removed, dissected, and evaluated for lesion development by en face oil red-O staining and morphometry of scanned images using the software Scion Image (Scion Corp., Fredrick, Md.). […]

[3] = test system: ApoE-null mice; test: Fatty streak lesion area in aortas, treatment begun after start of HFHC diet (Example 2); assay type: in vivo, mouse; conditions: HFHC diet from 6 weeks
Description: The effects of EP80317 (300 μg/kg per day) administered subcutaneously for 8 weeks (from 10 to 18 weeks of age), 6 weeks (from 12 to 18 weeks of age) and 4 weeks (from 14 to 18 weeks of age) were documented, as well as the effect of hexarelin (100 μg/kg per day) given for 4 weeks (from 14 to 18 weeks of age).
To determine whether GHRPs are able to delay the development or to modulate the regression of fatty streaks, we have used the ApoE-deficient mice to assess the effect of the duration of the treatment with GHRPs on the progression of fatty streaks after the initiation of atherosclerotic lesions induced by a HFHC diet starting at 6 weeks of age.
Male ApoE-null mice (n=35) were housed in cages (less than 5 per cage). After weaning until 4 weeks of age, the mice were fed a normal chow diet and water ad libitum. Starting at 6 weeks of age, the mice were fed a HFHC diet (purchased from Research Diet Inc. (D.12108)). The animals were segregated in 3 groups. • Group 1 (n=10) was subdivided into 2 subgroups, receiving, from 10 to 18 weeks of age (i.e. for 8 weeks), daily injections of EP80317 (300 μg/kg) (n=5) or 0.9% NaCl (n=5). • Group 2 (n=10) was subdivided into 2 subgroups receiving, from 12 to 18 weeks of age (i.e. for 6 weeks), daily injections of EP80317 (300 μg/kg/per day) (n=5) or 0.9% NaCl (n=5). • Group 3 (n=15) was subdivided into 3 subgroups, receiving, from 14 to 18 weeks of age (i.e. for 4 weeks), EP80317 (300 μg/kg/per day) (n=5), or hexarelin (100 μg/kg per day) (n=5) or 0.9% NaCl (n=5).
Mice were euthanised at 18 weeks of age. The entire aortas from the heart extending 5-10 mm after bifurcation of the iliac arteries and including the subclavian right and left common carotids were removed, dissected and evaluated for lesion development by en face oil red-O staining and morphometry of scanned images using the software Scion image (Scion Corp., Frederick, Md.).

[4] = test system: CD36; test: Western blot of oxLDL-elicited peritoneal macrophages from treated ApoE-null mice; assay type: in vivo, mouse; conditions: HFHC diet, HEX 100 μg/kg or EP80317 300 μg/kg per day, 12 weeks, normalised to β-actin, vehicle set at 100%
Description: GHRPs modulate CD36 and ABCA1 protein levels in peritoneal macrophages from ApoE-null mice fed a HFHC diet for 12 weeks. […] Relative protein levels for A, CD36 and B, ABCA1 are normalised to β-actin and expressed as % of change compared to vehicle (0.9% NaCl)-treated controls set at 100%. Data represent the mean of two independent experiments.

[5] = test system: ApoE-null mice; test: Plasma lipid analysis (enzymatic kits) after 12 weeks treatment; assay type: in vivo, mouse; conditions: HFHC diet; for Increase in HDL cholesterol compared to controls: HEX 100 μg/kg or EP80317 300 μg/kg per day for 12 weeks, tended to be increased
Description: A: Effects of 12 weeks treatment (from 6 weeks old) with 0.9% NaCl (open bar), HEX, 100 μg/kg per day (solid bar) or EP80317 300 μg/kg per day (cross-hatched bar) on total plasma cholesterol in mice fed a HFHC or a normal diet.
The animals were housed in cages (less than 5 per cage) and fed a normal chow diet and water ad libitum. At 6 weeks of age, male C57BL/6, CD36 and ApoE-null mice were assigned to 1 of 3 groups (n=12 mice per group): Group 1 received daily injections of 0.9% NaCl (1 μL/g); Group 2, HEX (100 μg/kg, 1 μL/g), and Group 3, EP80317 (300 μg/kg, 1 μL/g). All three groups of mice were fed a HFHC diet (purchased from Research Diet Inc. (D.12108)) from 6 weeks of age. Daily s.c. treatment with HEX, EP80317 or vehicle was begun at 6 weeks old and continued for 12 weeks. Four days before sacrifice, 6 mice from Groups 1 to 3 were injected i.p. with oxLDL (minimally oxidized, 3-6 mmol/mg protein, as determined by Thiobarbituric Acid Reactive Substances (TBARS) assay). At 18 weeks old, mice were fasted overnight, anaesthetised with ketamine-xylazine (90:10 mg/kg) two hours after the s.c. administration of the morning dose of the drug under study. Blood (1 mL) was taken from the heart and put into EDTA pre-coated microcontainers (BD, Franklin Lakes, N.J., USA). Mice were killed, the hearts were perfused with 20 mL 0.9% NaCl. The peritoneal cavity was washed with 3 mL of heparinised saline (10 units/mL) in mice injected i.p. with oxLDL. A hemacytometer and stained cytospin preparation (Diff Quick stain, Dade Diagnostics of P.R. Inc., Aguada, PR) were used to determine the total and differential leukocyte numbers, respectively, for the peritoneal cavity lavage fluid. The entire aorta from the heart, extending 5-10 mm after bifurcation of the iliac arteries and including the subclavian right and left common carotid arteries, was removed, dissected, and evaluated for lesion development by en face oil red-O staining and morphometry of scanned images using the software Scion Image (Scion Corp., Fredrick, Md.). The animal study protocol was reviewed and approved by the institutional Animal Ethics Committee of the Université de Montréal and conducted in accordance with the Canadian Council on Animal Care guidelines for use of experimental animals.
Total plasma cholesterol, triacylglycerol and HDL cholesterol were determined using enzymatic kits (Sigma Chemicals). Appropriate standards and controls were included in each assay.

[6] = test system: CD36-null mice; test: oxLDL-induced accumulation of macrophages in the peritoneal cavity; assay type: in vivo, mouse; conditions: HFHC diet, EP80317 300 μg/kg per day, 12 weeks
Description: (§2) A: Effects of 12 weeks treatment (from 6 weeks old) with 0.9% NaCl (open bar), HEX, 100 μg/kg per day (solid bar) or EP80317, 300 μg/kg per day (cross-hatched bar) on oxLDL (250 μg i.p., <6 nmol MDA/mg lipoprotein)-induced accumulation of macrophages in the peritoneal cavity in wild type C57BL/6 mice and CD36-null mice fed a HFHC diet. Peritoneal macrophage accumulation in wild type mice tended to be reduced by 37%.
as §1, with “libitum. At 6 weeks of age, male C57BL/6, CD36 and ApoE-null mice were assigned to 1 of 3 groups (n=12 mice per group): Group 1 received daily injections of 0.9% NaCl (1 μL/g); Group 2, HEX (100 μg/kg, 1 μL/g), and Group 3, EP80317 (300 μg/kg, 1 μL/g).” for “libitum.”

[7] = test system: wild type C57BL/6 mice; test: as above; assay type: in vivo, mouse; conditions: HFHC diet, EP80317 300 μg/kg per day, 12 weeks, oxLDL 250 μg i.p.
Description: as §2
as §1, with “libitum. At 6 weeks of age, male C57BL/6, CD36 and ApoE-null mice were assigned to 1 of 3 groups (n=12 mice per group): Group 1 received daily injections of 0.9% NaCl (1 μL/g); Group 2, HEX (100 μg/kg, 1 μL/g), and Group 3, EP80317 (300 μg/kg, 1 μL/g).” for “libitum.”

[8] = cited from earlier work
[9] = test system: ApoE-null mice; test: oxLDL-induced accumulation of macrophages in the peritoneal cavity; assay type: in vivo, mouse; conditions: normal chow diet, EP80317 300 μg/kg per day, 12 weeks
Description: B: Effects of 12 weeks treatment (from 6 weeks old) with 0.9% NaCl (open bar), HEX, 100 μg/kg per day (solid bar) or EP80317, 300 μg/kg per day (cross-hatched bar) on oxLDL-induced accumulation of macrophages in the peritoneal cavity in ApoE-null mice fed either a HFHC or a normal diet. Peritoneal macrophage accumulation was reduced by 39% in mice fed a normal diet.
as §1, with “libitum. At 6 weeks of age, male C57BL/6, CD36 and ApoE-null mice were assigned to 1 of 3 groups (n=12 mice per group): Group 1 received daily injections of 0.9% NaCl (1 μL/g); Group 2, HEX (100 μg/kg, 1 μL/g), and Group 3, EP80317 (300 μg/kg, 1 μL/g). All three groups of mice were fed a HFHC diet (purchased from Research Diet Inc. (D.12108)) from 6 weeks of age.” for “libitum.”

[10] = test system: peritoneal macrophages isolated from ApoE-null mice; test: Lipid accumulation in peritoneal macrophages isolated from treated ApoE-null mice (Oil Red O extraction); assay type: in vivo, mouse; conditions: HFHC diet from 13 to 18 weeks old, EP80317 300 μg/kg s.c. from 13 to 18 weeks old, vs not treated
Description: B: GHRPs reduced lipid accumulation in peritoneal macrophages isolated from ApoE-null mice fed a HFHC diet from 13 to 18 weeks old. EP80317 (300 μg/kg) s.c. has been administered from 13 to 18 weeks old. Lipid staining (assessed by Oil Red O extraction) was reduced by 57% (compared to peritoneal macrophages isolated from ApoE-null mice fed a HFHC diet from 13 weeks old, but not treated with EP80317).

[11] = treatment for 4 weeks (14 to 18 weeks of age), EP80317 300 μg/kg or hexarelin 100 μg/kg per day, not significant
[12] = EP80317 300 μg/kg daily for 12 weeks from 6 weeks old

| Molecule | Reduction of lipid staining compared to untreated cells [1] [%] | Reduction of lesion area (% of total aorta area) compared to controls [2] [%] | Reduction of lesion area (% total aorta area) compared to controls [3, 11] [%] | CD36 protein expression in peritoneal macrophages, % of controls [4] | Increase in HDL cholesterol compared to controls [5] [%] | oxLDL-induced peritoneal macrophage accumulation [6] | Reduction of oxLDL-induced peritoneal macrophage accumulation [7] [%] | GH-secreting activity in vivo [8] | Reduction of oxLDL-induced peritoneal macrophage accumulation [9] [%] | Reduction of lesion area (% total aorta area) compared to controls ([3]; treatment for 6 weeks (12 to 18 weeks of age), EP80317 300 μg/kg per day s.c.) [%] | Reduction of lesion area (% total aorta area) compared to controls ([3]; treatment for 8 weeks (10 to 18 weeks of age), EP80317 300 μg/kg per day s.c.) [%] | Reduction of lipid staining in peritoneal macrophages (Oil Red O extraction) [10] [%] | Decrease in non-HDL plasma cholesterol compared to controls [5, 12] [%] | Decrease in total plasma cholesterol compared to controls [5, 12] [%] |
| --- | --- | --- | --- | --- | --- | --- | --- | --- | --- | --- | --- | --- | --- | --- |
| Cc1[nH]c2ccccc2c1C[C@@H](NC(=O)[C@@H](N)Cc1cnc[nH]1)C(=O)N[C@@H](C)C(=O)N[C@@H](Cc1c[nH]c2ccccc12)C(=O)N[C@H](Cc1ccccc1)C(=O)N[C@@H](CCCCN)C(N)=O [HEX, His-(D) -(Me)Trp-Ala-Trp-(D)-Phe-Lys-NH2, reference compound] (H-H[dTrp(2-Me)]AW[dF]K-NH2) | 35 | 28 | 8 | 57 % of controls | 65 |  |  |  |  |  |  |  |  |  |
| Haic-(D) -(Me)Trp-(D)-Lys-Trp-(D)-Phe-Lys-NH2 ([Haic′]W[dK]W[dF]K-NH2; not fully specified (residue 2)) [EP80317] | 28 | 51 | 36 | 27 % of controls | 73 | did not modulate macrophage accumulation | 37 | devoid of GH-secreting activity in vivo | 39 | 31.3 | 39.2 | 57 | 31 | 30 |
